The values that follow come from BindingDB's records for doi:10.1016/j.bmc.2008.06.036 (University of Texas Medical Branch, 2008).

The assay is described as follows: Inhibition of Bacillus anthracis edema factor-induced cytotoxicity in mouse RAW264.7 cells assessed as LDH release after 4 hrs. (In general: Release of lactate dehydrogenase indicates damage to the cell membrane.)

Consider `O=C(O)c1cccc(NC(=O)c2cccc3c2C(=O)c2ccccc2-3)c1` [3-[(9-oxo-9Hfluorene-1-carbonyl)-amino]-benzoic acid], for which the IC50 (commonly the point on the concentration scale where inhibition reaches its midpoint) amounted to 1.7 µM. `COC(=O)c1ccc([C@H]2Nc3ccc(C(=O)O)cc3[C@@H]3C=CC[C@H]23)cc1` [(3aS,4S,9bR)-4-(4-(methoxycarbonyl)phenyl)-3a,4,5,9b-tetrahydro-3H-cyclopenta[c]quinoline-8-carboxylic acid]: the half-inhibitory concentration (IC50) worked out at 100 µM.
